For this assay, the target named is T1, CLOCK PAS–A (murine CLOCK PAS-A domain, mCLOCK) (Mus musculus, UniProt O08785).
T1 sequence (O08785 103-265): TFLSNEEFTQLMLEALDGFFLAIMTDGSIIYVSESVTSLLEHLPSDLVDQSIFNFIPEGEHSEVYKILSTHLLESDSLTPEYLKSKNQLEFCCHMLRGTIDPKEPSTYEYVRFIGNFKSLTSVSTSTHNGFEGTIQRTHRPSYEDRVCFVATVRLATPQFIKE
Nature of the assay: UV-visible spectrophotometric titration, global nonlinear least squares fit. Format: binding.

Broadly, the Kd is the concentration at which binding is half-saturated.

`C=CC1=C(C)C2=Cc3c(C=C)c(C)c4[n]3[Fe]([Cl])[n]3c(c(C)c(CCC(=O)O)c3=CC3=NC(=C4)C(C)=C3CCC(=O)O)=CC1=N2` [hemin] registered a Kd of 1.05 µM.

The record behind these values is article PMC2920140 (Inorganic chemistry, 2010).
